According to ChEMBL document CHEMBL4406898, “Dual mode of binding of anti cancer drug epirubicin to G-quadruplex [d-(TTAGGGT)]4 containing human telomeric DNA sequence induces thermal stabilization” (Bioorg Med Chem, 2019):
The source made the active and inactive calls. No cut-off for these calls is given here.

Legend:
Quadruplex DNA [1] = assay: Effect on parallel topology of human telomeric 7 G-quadruplex DNA assessed as reduction in negative band ellipticity at compound:DNA ratio of 3:0 by CD spectroscopy relative to control; assay type: nucleic-acid assay; set-up: scale not given: the % may be the effect or the level left
Quadruplex DNA [2] = assay: Binding affinity to human telomeric 22 G-quadruplex DNA assessed as binding constant in presence of KCl by CD spectroscopy analysis; assay type: nucleic-acid assay
Quadruplex DNA [3] = assay: Binding affinity to human telomeric 7 G-quadruplex DNA incubated for 5 mins by UV-visible spectrophotometric analysis; assay type: nucleic-acid assay
Quadruplex DNA [4] = assay: Binding affinity to human telomeric 7 G-quadruplex DNA assessed as binding constant Kb2 in 100 mM KCl by fluorescence spectral analysis; assay type: nucleic-acid assay
Quadruplex DNA [5] = assay: Binding affinity to human telomeric 7 G-quadruplex DNA assessed as binding constant Kb1 at 559.5 nanometer by spectrofluorimetric analysis; assay type: nucleic-acid assay
Quadruplex DNA [6] = assay: Binding affinity to human telomeric 7 G-quadruplex DNA assessed as melting temperature compound:DNA ratio of 2:0 to 4:0 by CD spectroscopy analysis; assay type: nucleic-acid assay
Quadruplex DNA [7] = assay: Binding affinity to human telomeric 7 G-quadruplex DNA assessed as binding constant Kb2 in 150 mM of KCl by fluorescence spectral analysis; assay type: nucleic-acid assay
Quadruplex DNA [8] = assay: Binding affinity to human telomeric 7 G-quadruplex DNA assessed as binding constant Kb2 in water by fluorescence spectral analysis; assay type: nucleic-acid assay
Quadruplex DNA [9] = assay: Binding affinity to human telomeric 7 G-quadruplex DNA at compound:DNA ratio of 2.3 to 6.1 by spectrofluorimetric analysis; assay type: nucleic-acid assay
Quadruplex DNA [10] = assay: Binding affinity to human telomeric 7 G-quadruplex DNA assessed as binding constant Kb2 in absence of KCl by fluorescence spectral analysis; assay type: nucleic-acid assay
Quadruplex DNA [11] = assay: Binding affinity to human telomeric 7 G-quadruplex DNA assessed as binding constant Kb2 at 591 nanometer by spectrofluorimetric analysis; assay type: nucleic-acid assay
Quadruplex DNA [12] = assay: Binding affinity to human telomeric 7 G-quadruplex DNA assessed as fluorescence quenching at 7 uM in presence of 100 mM NaCl by fluorescence spectral analysis relative to control; assay type: nucleic-acid assay
Quadruplex DNA [13] = assay: Binding affinity to human telomeric 7 G-quadruplex DNA assessed as binding constant Kb1 in absence of KCl by fluorescence spectral analysis; assay type: nucleic-acid assay
Quadruplex DNA [14] = assay: Binding affinity to human telomeric 7 G-quadruplex DNA assessed as red shift in emission wavelength at 7 uM measured at 559.5 nanometer by fluorescence spectral analysis; assay type: nucleic-acid assay
[15] = Self aggregation behaviour in phosphate buffer solution assessed as effect on absorption spectra at >10 uM by absorption spectroscopy; assay type: physicochemical
Quadruplex DNA [16] = assay: Binding affinity to human telomeric 7 G-quadruplex DNA assessed as binding constant Kb2 in 100 mM NaCl by fluorescence spectral analysis; assay type: nucleic-acid assay
Quadruplex DNA [17] = assay: Effect on parallel topology of human telomeric 7 G-quadruplex DNA assessed as reduction in […] band ellipticity at 264 nm at compound:DNA ratio of 4:0 by CD spectroscopy relative to control; assay type: nucleic-acid assay; set-up: scale not given: the % may be the effect or the level left
Quadruplex DNA [18] = assay: Binding affinity to human telomeric 7 G-quadruplex DNA assessed as delta Tm2 compound:DNA ratio of 2:0 by CD spectroscopy analysis; assay type: nucleic-acid assay
Quadruplex DNA [19] = assay: Binding affinity to human telomeric 7 G-quadruplex DNA assessed as fluorescence quenching at 7 uM in presence of 100 to 150 mM K+ ion by fluorescence spectral analysis relative to control; assay type: nucleic-acid assay
Quadruplex DNA [20] = assay: Binding affinity to human telomeric 7 G-quadruplex DNA assessed as fluorescence quenching at 7 uM in presence of water by fluorescence spectral analysis relative to control; assay type: nucleic-acid assay
Quadruplex DNA [21] = assay: Binding affinity to human telomeric 7 G-quadruplex DNA assessed as stern-volmer quenching constant in compound:DNA ratio of 0.4 to 1.0 by spectrofluorimetric analysis; assay type: nucleic-acid assay
Quadruplex DNA [22] = assay: Binding affinity to human telomeric 7 G-quadruplex DNA assessed as change in melting temperature compound:DNA ratio of 2:0 by CD spectroscopy analysis; assay type: nucleic-acid assay
Quadruplex DNA [23] = assay: Binding affinity to human telomeric 7 G-quadruplex DNA assessed as drug-DNA complex stoichiometry ratio of 2:1 at 7 uM by absorption spectroscopy; assay type: nucleic-acid assay
Quadruplex DNA [24] = assay: Binding affinity to human telomeric 7 G-quadruplex DNA assessed as binding constant Kb1 in 100 mM KCl by fluorescence spectral analysis; assay type: nucleic-acid assay
Quadruplex DNA [25] = assay: Binding affinity to human telomeric 7 G-quadruplex DNA assessed as binding constant Kb1 in 150 mM of KCl by fluorescence spectral analysis; assay type: nucleic-acid assay
Quadruplex DNA [26] = assay: Binding affinity to human telomeric 22 G-quadruplex DNA assessed as binding constant in presence of NaCl by CD spectroscopy analysis; assay type: nucleic-acid assay
Quadruplex DNA [27] = assay: Binding affinity to human telomeric 7 G-quadruplex DNA assessed as delta Tm1 compound:DNA ratio of 2:0 by CD spectroscopy analysis; assay type: nucleic-acid assay
Quadruplex DNA [28] = assay: Binding affinity to human telomeric 7 G-quadruplex DNA at compound:DNA ratio of 0.4 to 1.0 by spectrofluorimetric analysis; assay type: nucleic-acid assay
Quadruplex DNA [29] = assay: Binding affinity to human telomeric 7 G-quadruplex DNA assessed as binding constant Kb2 at 559.5 nanometer by spectrofluorimetric analysis; assay type: nucleic-acid assay
Quadruplex DNA [30] = assay: Binding affinity to human telomeric 7 G-quadruplex DNA assessed as binding constant Kb1 at 591 nanometer by spectrofluorimetric analysis; assay type: nucleic-acid assay
Quadruplex DNA [31] = assay: Binding affinity to human telomeric 7 G-quadruplex DNA assessed as melting temperature compound:DNA ratio of 1:0 by CD spectroscopy analysis; assay type: nucleic-acid assay
Quadruplex DNA [32] = assay: Binding affinity to human telomeric 7 G-quadruplex DNA assessed as fluorescence quenching at 7 uM measured at 559.5 nanometer by fluorescence spectral analysis relative to control; assay type: nucleic-acid assay
Quadruplex DNA [33] = assay: Binding affinity to human telomeric 7 G-quadruplex DNA assessed as binding constant Kb1 in 100 mM NaCl by fluorescence spectral analysis; assay type: nucleic-acid assay
Quadruplex DNA [34] = assay: Binding affinity to human telomeric 7 G-quadruplex DNA assessed as hypochromic red shift at 7 uM in presence of water by fluorescence spectral analysis; assay type: nucleic-acid assay
Quadruplex DNA [35] = assay: Binding affinity to human telomeric 7 G-quadruplex DNA assessed as hypochromic red shift at 7 uM in presence of 100 mM NaCl by fluorescence spectral analysis; assay type: nucleic-acid assay
Quadruplex DNA [36] = assay: Binding affinity to human telomeric 7 G-quadruplex DNA assessed as binding constant Kb1 in water by fluorescence spectral analysis; assay type: nucleic-acid assay
Quadruplex DNA [37] = assay: Binding affinity to human telomeric 7 G-quadruplex DNA assessed as drug-DNA complex stoichiometry ratio of 1:1 at 7 uM by absorption spectroscopy; assay type: nucleic-acid assay
Quadruplex DNA [38] = assay: Binding affinity to human telomeric 7 G-quadruplex DNA assessed as delta Tm3 compound:DNA ratio of 2:0 by CD spectroscopy analysis; assay type: nucleic-acid assay
Quadruplex DNA [39] = assay: Binding affinity to human telomeric 7 G-quadruplex DNA assessed as hypochromic red shift at 7 uM in presence of 100 to 150 mM K+ ion by fluorescence spectral analysis; assay type: nucleic-acid assay
Quadruplex DNA [40] = assay: Binding affinity to human telomeric 7 G-quadruplex DNA assessed as red shift in emission wavelength at 7 uM measured at 591 nanometer by fluorescence spectral analysis; assay type: nucleic-acid assay
Quadruplex DNA [41] = assay: Binding affinity to human telomeric 7 G-quadruplex DNA assessed as delta Tm1 compound:DNA ratio of 0:5 by CD spectroscopy analysis; assay type: nucleic-acid assay
Quadruplex DNA [42] = assay: Binding affinity to human telomeric 7 G-quadruplex DNA assessed as melting temperature Tm1 compound:DNA ratio of 0:5 by CD spectroscopy analysis (reference value: 58.8 +/- 0.4 degreeC); assay type: nucleic-acid assay
Quadruplex DNA [43] = assay: Effect on parallel topology of human telomeric 7 G-quadruplex DNA assessed as reduction in negative band ellipticity at compound:DNA ratio of 4:0 by CD spectroscopy relative to control; assay type: nucleic-acid assay; set-up: scale not given: the % may be the effect or the level left
Quadruplex DNA [44] = assay: Binding affinity to human telomeric 7 G-quadruplex DNA assessed as melting temperature Tm3 compound:DNA ratio of 0:5 by CD spectroscopy analysis; assay type: nucleic-acid assay
Quadruplex DNA [45] = assay: Binding affinity to human telomeric 7 G-quadruplex DNA assessed as fluorescence quenching at 7 uM by fluorescence spectral analysis; assay type: nucleic-acid assay
Quadruplex DNA [46] = assay: Binding affinity to human telomeric 7 G-quadruplex DNA assessed as quenching constant by spectrofluorimetric analysis; assay type: nucleic-acid assay
Quadruplex DNA [47] = assay: Binding affinity to human telomeric 7 G-quadruplex DNA by CD spectroscopy; assay type: nucleic-acid assay
Quadruplex DNA [48] = assay: Binding affinity to human telomeric 7 G-quadruplex DNA assessed as hypochromic red shift at 7 uM by absorption spectroscopy relative to untreated control; assay type: nucleic-acid assay
Quadruplex DNA [49] = assay: Binding affinity to human telomeric 7 G-quadruplex DNA assessed as melting temperature Tm2 compound:DNA ratio of 2:0 by CD spectroscopy analysis (reference value: 64.3 +/- 0.2 degreeC); assay type: nucleic-acid assay
Quadruplex DNA [50] = assay: Binding affinity to human telomeric 7 G-quadruplex DNA assessed as hypochromic red shift by measuring difference in maximum absorption at 7 uM by absorption spectroscopy; assay type: nucleic-acid assay
Quadruplex DNA [51] = assay: Binding affinity to human telomeric 7 G-quadruplex DNA assessed as stern-volmer quenching constant in compound:DNA ratio of 1.2 to 3.8 by spectrofluorimetric analysis; assay type: nucleic-acid assay
Quadruplex DNA [52] = assay: Binding affinity to human telomeric 7 G-quadruplex DNA assessed as binding constant Kb2 in 50 mM of KCl by fluorescence spectral analysis; assay type: nucleic-acid assay
Quadruplex DNA [53] = assay: Binding affinity to human telomeric 7 G-quadruplex DNA assessed as melting temperature Tm1 compound:DNA ratio of 2:0 by CD spectroscopy analysis (reference value: 58.8 +/- 0.4 degreeC); assay type: nucleic-acid assay
Tetrahymena thermophila [54] = assay: Binding affinity to Tetrahymena thermophila telomeric 22 G-quadruplex DNA assessed as binding constant Kb1
Quadruplex DNA [55] = assay: Binding affinity to human telomeric 7 G-quadruplex DNA assessed as fluorescence quenching at 7 uM measured at 591 nanometer by fluorescence spectral analysis relative to control; assay type: nucleic-acid assay
Tetrahymena thermophila [56] = assay: Binding affinity to Tetrahymena thermophila telomeric 22 G-quadruplex DNA assessed as binding constant Kb2
Quadruplex DNA [57] = assay: Binding affinity to human telomeric 7 G-quadruplex DNA assessed as binding constant Kb1 in 50 mM of KCl by fluorescence spectral analysis; assay type: nucleic-acid assay

SMILES: COc1cccc2c1C(=O)c1c(O)c3c(c(O)c1C2=O)C[C@@](O)(C(=O)CO)C[C@@H]3O[C@H]1C[C@H](N)[C@@H](O)[C@H](C)O1 [EPIRUBICIN]
- Activity (Quadruplex DNA [1]): 90%
- Kb (Quadruplex DNA [2]): 3 to 3.6 ×10⁵ /M
- Kb (Quadruplex DNA [3]): 2.3 ×10⁶ /M
- Kb (Quadruplex DNA [4]): 4 ×10⁶ /M
- Kb (Quadruplex DNA [5]): 2 ×10⁶ /M
- Tm (Quadruplex DNA [6]): 70 °C
- Kb (Quadruplex DNA [7]): 4.6 ×10⁶ /M
- Kb (Quadruplex DNA [8]): 53 ×10⁴ /M
- Kb (Quadruplex DNA [9]): 4.6 ×10⁵ /M
- Kb (Quadruplex DNA [10]): 0.24 ×10⁴ /M
- Kb (Quadruplex DNA [11]): 3.8 ×10⁶ /M
- Activity (Quadruplex DNA [12]): 39%
- Kb (Quadruplex DNA [13]): 1.8 ×10⁴ /M
- deltaA (Quadruplex DNA [14]): 8 nm
- Activity [15]: Active
- Kb (Quadruplex DNA [16]): 7.3 ×10⁴ /M
- Activity (Quadruplex DNA [17]): 18%
- ΔTm (Quadruplex DNA [18]): 13.2 °C
- Activity (Quadruplex DNA [19]): 89%
- Activity (Quadruplex DNA [20]): 60%
- KSV (Quadruplex DNA [21]): 4.1 ×10⁵ /M
- ΔTm (Quadruplex DNA [22]): 15 °C
- Activity (Quadruplex DNA [23]): Active
- Kb (Quadruplex DNA [24]): 2.3 ×10⁶ /M
- Kb (Quadruplex DNA [25]): 1.3 to 1.9 ×10⁶ /M
- Kb (Quadruplex DNA [26]): 2.5 ×10⁴ /M
- ΔTm (Quadruplex DNA [27]): 11.6 °C
- Kb (Quadruplex DNA [28]): 2 ×10⁶ /M
- Kb (Quadruplex DNA [29]): 4.6 ×10⁵ /M
- Kb (Quadruplex DNA [30]): 2.7 ×10⁶ /M
- Tm (Quadruplex DNA [31]): 65 °C
- Activity (Quadruplex DNA [32]): 93%
- Kb (Quadruplex DNA [33]): 3.5 ×10⁴ /M
- deltaA (Quadruplex DNA [34]): 0.5 nm
- deltaA (Quadruplex DNA [35]): 1 nm
- Kb (Quadruplex DNA [36]): 8.4 ×10⁴ /M
- Activity (Quadruplex DNA [37]): Active
- ΔTm (Quadruplex DNA [38]): 26.3 °C
- deltaA (Quadruplex DNA [39]): 8 to 16 nm
- deltaA (Quadruplex DNA [40]): 16 nm
- ΔTm (Quadruplex DNA [41]): 9.3 °C
- Tm (Quadruplex DNA [42]): 68.1 °C
- Activity (Quadruplex DNA [43]): 59%
- Tm (Quadruplex DNA [44]): 90.6 °C
- Activity (Quadruplex DNA [45]): Active
- Kq (Quadruplex DNA [46]): 7.5 ×10¹⁴ /M/s
- Kb (Quadruplex DNA [47]): 1.9 ×10⁶ /M
- Activity (Quadruplex DNA [48]): 47.6%
- Tm (Quadruplex DNA [49]): 77.5 °C
- deltaA (Quadruplex DNA [50]): 9 nm
- KSV (Quadruplex DNA [51]): 1.1 ×10⁶ /M
- Kb (Quadruplex DNA [52]): 3.8 ×10⁶ /M
- Tm (Quadruplex DNA [53]): 70.4 °C
- Kb (Tetrahymena thermophila [54]): 1.9 ×10⁶ /M
- Activity (Quadruplex DNA [55]): 92%
- Kb (Tetrahymena thermophila [56]): 2.3 ×10⁵ /M
- Kb (Quadruplex DNA [57]): 2.7 ×10⁶ /M
